Measurements reported in US20260028334A1, “N-(3-(BENZO[B]THIOPHENE-2-CARBOXAMIDO)-PHENYL)-2,3-DIHYDROBENZO[B][1,4]DIOXINE-6-CARBOXAMIDE DERIVATIVES AND RELATED COMPOUNDS AS LACTATE/ATP PRODUCTION INHIBITORS FOR THE TREATMENT OF CANCER” (WMT Aktiengesellschaft, priority 2022, published 2026).

Key:
[1] = system: HeLa cells; experiment: Lactate production inhibition assay, co-treatment with phenformin (FIG. 7); assay type: cell-based; settings: 48 hours co-treatment of phenformin (6.25-100 μM) with compound at 41, 14, 4.6 nM
Excerpt: Recombinant Lactate Dehydrogenase A (LDHA) was used to convert lactate in tissue culture supernatants to pyruvate, with the concomitant reduction of NAD^+ to NADH. The electron acceptor 1-methoxyphenazine methosulfate (MPMS) was then reduced by the generated NADH, thereby regenerating NAD+. Reduced 1-methoxyphenazine methosulfate is used in turn to reduce Water Soluble Tetrazolium 8 (WST8) to an orange WST8 formazan product. The assay is adapted from the publication “Application of WST-8 based colorimetric NAD(P)H detection for quantitative dehydrogenase assays” described in Chamchoy et al., BMC Biochemistry (2019) 20(1):4.
Cells were plated at 4,000 per well in 96-well plate in a medium of high glucose DMEM (PAN) supplemented with 10% FBS (PAN), 2 mM glutamine-alanine (PAN), 2 mM pyruvate (Sigma) and 10 mL/L penicillin-streptomycin (PAN) and grown at 37° C. in 0.5% O2, 5% CO2 and 75% humidity. For hypoxia, cells were grown and treated in the Whitley H35 Hypoxystation (Don Whitley Scientific) at 37° C. in 0.5% O2, 5% CO2 and 75% humidity. […] Thereafter, 80 μl of substrate mix is added to 20 μl of diluted cell supernatant in a 96-well flat-bottomed plate and the absorbance at 460 nm determined at one minute intervals over a 30 minute period. […]

[2] = target: p62 (Homo sapiens (Human), UniProt Q13501); experiment: Western Blot analysis of p62; assay type: cell-based; settings: HeLa cells, normoxic and hypoxic conditions; for p62: 24 hours, 10, 30 and 100 nM, also with Bafilomycin A, FIG. 5
Procedure: Western Blot analysis was used to detect amounts of specific protein in differently treated cells. Proteins are separated by size, transferred onto a nitrocellulose membrane and incubated with protein specific antibodies. The density of the observed band is proportional to the amount of the specific protein inside the cell.
Cells were plated at 4×10^6 (for hypoxia) or 3×10^6 (for normoxia) cells per […] plate in medium of high glucose DMEM (PAN) supplemented with 10% FBS (PAN), 2 mM glutamine-alanine (PAN), 2 mM pyruvate (Sigma) and 10 ml/L penicillin-streptomycin (PAN), and grown at 37° C. in […], 5% CO2 and 75% humidity. For hypoxia, cells were grown and treated in the Whitley H35 Hypoxystation (Don Whitley Scientific) at 37° C. in 0.5% O2, 5% CO2 and 75% humidity. Next day, the cells were treated with test compounds (FIG. 4: compounds of example 3/8 and 10 at concentrations 0.1, 0.3 and 1 μM, Bafilomycin A at 20 nM; FIG. 5: compounds of example 3/16, 3/8 and 10 at concentrations 10, 30 and 100 nM, Bafilomycin A at 20 nM), as well as with vehicle (DMSO) only, for 24 h. After 24 hours, the cells were washed with PBS and scraped to collect. The lysate was centrifuged at 2,000 rpm for 3 min at 4° C. The cell pellet was resuspended in 250 μl Lysis Buffer (20 mM Tris pH 7.8, 150 mM NaCl, 0.05% Tween20, 2 mM MgCl2, protease inhibitors (Roche), 1 mM NaF, 1 mM Na3VO4) and sonicated at 50% for 20 sec. The sample was centrifuged at 14,000 rpm for 4 min at 4° C. Protein concentration of the sample was measured using the DC Protein Assay Kit (Biorad, 5000112), 22 μg of protein extract per well was loaded onto a precast SDS page gel (Biorad, 1704273). Proteins were then transferred onto a PVDF-membrane (Biorad, 10026933) using Biorad Trans-Blot Turbo Transfer System. […] The chemiluminescence was measured using chemiluminescent substrate (#34580, Thermo Scientific).

Compound: Cc1ccc(NC(=O)c2ccc3c(c2)OCCO3)cc1NC(=O)c1cc2cccnc2s1 [3/16]
- lactate levels [1]: downregulation
- p62 [2]: dose-dependent reduction

Compound: O=C(Nc1ccc(F)c(NC(=O)c2cc3ccc(OCCCN4CCCC4)cc3s2)c1)c1ccc2c(c1)OCCO2 [3/8]
- lactate levels [1]: downregulation
- p62 protein levels ([2]; 24 hours, 0.1, 0.3 and 1 μM, FIG. 4): dose-dependent reduction
- p62 [2]: dose-dependent reduction
